Consider 31 compounds from patent US20260305610A1, “TRIAZOLE COMPOUND, AND PREPARATION METHOD THEREFOR, HERBICIDAL COMPOSITION AND USE THEREOF” (QINGDAO KINGAGROOT CHEMICAL COMPOUND CO., LTD., priority 2023, published 2026).

Structures are written as SMILES.

The assay concerns weeds. The assay is described as follows: Activity assay of compositions: soil sealing treatment (S), fresh weight inhibition and combined effect (Gowing method). It counts as in vivo. To be noted: 21 d. The protocol:
The required active ingredient B was purchased from a reagent company or a technical material manufacturer or synthesized by a conventional method. The technical materials were all dissolved with acetone solvents and diluted with aqueous solution of 0.1% Tween-80 emulsifier, which should be used immediately after dilution.
• Weeds were cultivated in a controllable sunlight greenhouse at 20 to 30° C., in natural light, and with relative humidity of 57% to 72%. […] The test soil was quantitatively filled to ¾ of the pot, and then watered from the bottom of the pot to completely wet the soil to saturation. The test weed seeds were accelerated to just germinate, and then evenly and quantitatively broadcasted on the soil surface, covered with 0.5-1 cm soil according to the sizes of the seeds, and ready for use 72 hours after sowing.
Each treatment was repeated 4 times. Four pots with 20 weed seeds sowed per pot were treated each time.
The well-sowed test materials were evenly placed on a platform with an area of 0.5 m^2, and foliage spraying was carried out by the 3WP-2000-type walking spray tower at a dosage of 450 kg/ha and a spray pressure of 0.3 MPa. After all the solution was sprayed, the air valve was closed. And 30 seconds later, the door of the spray tower was opened, and the nutritional bowl was taken out. Next, the air valve was opened, and the spray tube was cleaned by spraying 50 ml of water.
A method for investigating absolute numbers was employed. Whole seedlings of survival weeds were cut off along the soil surface with a blade, and the fresh weight of the weeds was weighed using an analytical balance. For dead weeds, the fresh weight thereof was zero.
The investigation was performed 21 days after the treatment for once in total.
The theoretical fresh weight inhibition rate of a mixed combination of each treatment was calculated by the Gowing method (E0=X+Y−X*Y/100). Then compared with the measured inhibition rate (E), the type of the combined effect of the combination of the two on weeds was evaluated, which was a synergistic effect when E−E0>10%; an antagonistic effect when E−E0<−10%; an additional effect when −10%≤E−E0≤10%. An optimal ratio was determined according to factors such as the actual control effects, characteristics of herbicides, balance of the formulation, etc. In the formula, X represents the fresh weight inhibition rate of the active ingredient A in a dosage of P; Y represents the fresh weight inhibition rate of the active ingredient B in a dosage of Q. The statistical results are shown in Table 4.

Setting [1] is: Commelina communis, B 15 g a.i./ha.
[2] abbreviates: Commelina communis, B 30 g a.i./ha.
Where [3] appears, read: Eclipta prostrata, B 150 g a.i./ha.
[4] abbreviates: Eclipta prostrata, B 300 g a.i./ha.
[5] abbreviates: Eclipta prostrata, B 15 g a.i./ha.
The mark [6] stands for this setting: Eclipta prostrata, B 30 g a.i./ha.
Where [7] appears, read: Eleocharis yokoscensis, B 150 g a.i./ha.
The mark [8] stands for this setting: Eleocharis yokoscensis, B 300 g a.i./ha.
The mark [9] stands for this setting: Eclipta prostrata, B 7.5 g a.i./ha.
The mark [10] stands for this setting: Eclipta prostrata, B 75 g a.i./ha.
The mark [11] stands for this setting: Silene conoidea, B 30 g a.i./ha.
Where [12] appears, read: Silene conoidea, B 60 g a.i./ha.

With `C#CCN1C(=O)COc2cc(F)c(N3C(=O)C4=C(CCCC4)C3=O)cc21` [Flumioxazin], the “Control effect of B applied alone in a corresponding dose (%)” value (“Control effect of B applied alone … (%)” for short) runs as follows: under setting [1], 35.0%; under setting [2], 50.6%.
Take `CC(C)c1ccc(NC(=O)N(C)C)cc1` [Isoproturon]: the “Control effect of B applied alone … (%)” value is, setting by setting: (Lolium temulentum, B 375 g a.i./ha) 37.1%; (Lolium temulentum, B 750 g a.i./ha) 58.2%.
Take `CS(=O)(=O)c1cc(C(F)(F)F)ccc1C(=O)c1cnoc1C1CC1` [Isoxaflutole]: the “Control effect of B applied alone … (%)” value (Amaranthus retroflexus, B 15 g a.i./ha) came to 36.7% and the “Control effect of B applied alone … (%)” value (Amaranthus retroflexus, B 30 g a.i./ha) is on record as 50.3%.
`CN(C(=O)COc1nc2ccccc2s1)c1ccccc1` [Mefenacet]: the “Control effect of B applied alone … (%)” value runs as follows: under setting [3], 40.6%; under setting [4], 69.7%.
Take `COc1cc(OC)nc(NC(=O)NS(=O)(=O)c2c(C3=NOCC(C)O3)c(Cl)nn2C)n1` (centres unmarked) [Metazosulfuron]: the “Control effect of B applied alone … (%)” value under setting [5] was 51.6% and the “Control effect of B applied alone … (%)” value under setting [6] came to 69.2%.
As for `CSc1nnc(C(C)(C)C)c(=O)n1N` [Metribuzin], the “Control effect of B applied alone … (%)” value runs as follows: under setting [7], 40.6%; under setting [8], 58.3%.
For the compound `CCN(CC)C(=O)C(C)Oc1cccc2ccccc12` (centres unmarked) [Napropamide], the “Control effect of B applied alone … (%)” value is 38.6% (Descurainia sophia, B 150 g a.i./ha) and 55.7% (Descurainia sophia, B 300 g a.i./ha).
Consider `CC(C)(C)c1nn(-c2cc(OCC#N)c(Cl)cc2Cl)c(=O)o1` [Oxadiargyl], for which the “Control effect of B applied alone … (%)” value (Solanum nigrum, B 45 g a.i./ha) came to 51.2% and the “Control effect of B applied alone … (%)” value (Solanum nigrum, B 90 g a.i./ha) was 64.7%.
With `CC(C)Oc1cc(-n2nc(C(C)(C)C)oc2=O)c(Cl)cc1Cl` [Oxadiazon], the “Control effect of B applied alone … (%)” value is reported as 45.8% (Solanum nigrum, B 30 g a.i./ha) and 53.5% (Solanum nigrum, B 60 g a.i./ha).
In the case of `CC1=C(c2ccccc2)C(=O)N(C(C)(C)c2cc(Cl)cc(Cl)c2)CO1` [Oxaziclomefone], the “Control effect of B applied alone … (%)” value is given as 38.9% under setting [9] and 56.8% under setting [5].
Turning to `CCC(CC)Nc1c([N+](=O)[O-])cc(C)c(C)c1[N+](=O)[O-]` [Pendimethalin], the “Control effect of B applied alone … (%)” value was 45.5% under setting [3] and 63.2% under setting [4].
Turning to `CC(C)=C1OC(=O)N(c2cc(OC3CCCC3)c(Cl)cc2F)C1=O` [Pentoxazone], the “Control effect of B applied alone … (%)” value under setting [6] is listed as 40.5% and the “Control effect of B applied alone … (%)” value (Eclipta prostrata, B 60 g a.i./ha) came out at 61.4%.
In the case of `CCCOCCN(C(=O)CCl)c1c(CC)cccc1CC` [Pretilachlor], the “Control effect of B applied alone … (%)” value reads like this: under setting [10], 38.4%; under setting [3], 68.3%.
In the case of `CSc1nc(NC(C)C)nc(NC(C)C)n1` [Prometryn], the “Control effect of B applied alone … (%)” value is on record as 42.1% under setting [7] and 56.9% under setting [8].
Take `CCCc1ccc2nc(Cl)c(S(=O)(=O)NC(=O)Nc3nc(OC)cc(OC)n3)n2n1` [Propyrisulfuron]: the “Control effect of B applied alone … (%)” value worked out at 42.8% under setting [9] and 63.0% under setting [5].
In the case of `CCCN(CCC)C(=O)SCc1ccccc1` [Prosulfocarb], the “Control effect of B applied alone … (%)” value is, setting by setting: (Lolium multiflorum, B 300 g a.i./ha) 46.5%; (Lolium multiflorum, B 600 g a.i./ha) 64.2%.
With `C#CCN(C)c1c(C#N)cnn1-c1nn2c(c1Cl)CCCC2` [Pyraclonil], the “Control effect of B applied alone … (%)” value reads like this: (Eclipta prostrata, B 37.5 g a.i./ha) 47.0%; under setting [10], 65.8%.
With `COCc1cccc(C(O)c2nc(OC)cc(OC)n2)c1NS(=O)(=O)C(F)F` (centres unmarked) [Pyrimisulfan], the “Control effect of B applied alone … (%)” value came out at 54.4% under setting [9] and 73.7% under setting [5].
As for `Cn1nc(C(F)(F)F)c(CS(=O)(=O)C2=NOC(C)(C)C2)c1OC(F)F` [Pyroxasulfone], the “Control effect of B applied alone … (%)” value (Lolium multiflorum, B 30 g a.i./ha) came to 40.6% and the “Control effect of B applied alone … (%)” value (Lolium multiflorum, B 60 g a.i./ha) amounted to 62.7%.
For `CCc1cccc(C)c1N(C(=O)CCl)[C@@H](C)COC` [S-metolachlor], the “Control effect of B applied alone … (%)” value reads like this: (Amaranthus retroflexus, B 150 g a.i./ha) 41.4%; (Amaranthus retroflexus, B 300 g a.i./ha) 64.6%.
As to `CC(C)N(C)S(=O)(=O)NC(=O)c1cc(-n2c(=O)cc(C(F)(F)F)n(C)c2=O)c(F)cc1Cl` [Saflufenacil], the “Control effect of B applied alone … (%)” value came out at 50.8% under setting [9] and 69.6% under setting [5].
As for `Cc1nn(-c2cc(NS(C)(=O)=O)c(Cl)cc2Cl)c(=O)n1C(F)F` [Sulfentrazone], the “Control effect of B applied alone … (%)” value is, setting by setting: (Solanum nigrum, B 15 g a.i./ha) 48.5%; (Solanum nigrum, B 30 g a.i./ha) 60.0%.
As for `CS(=O)(=O)c1ccc(C(=O)C2C(=O)CCCC2=O)c(Cl)c1COCC1CCCO1` (centres unmarked) [Tefuryltrione], the “Control effect of B applied alone … (%)” value reads like this: (Ammannia arenaria, B 7.5 g a.i./ha) 32.9%; (Ammannia arenaria, B 15 g a.i./ha) 55.2%.
Turning to `CCNc1nc(Cl)nc(NC(C)(C)C)n1` [Terbuthylazine], the “Control effect of B applied alone … (%)” value was determined as 35.5% (Chloris virgata, B 225 g a.i./ha) and 52.7% (Chloris virgata, B 450 g a.i./ha).
For `CN1C[C@H](c2cccc(C(F)(F)F)c2)[C@@H](C(=O)Nc2ccccc2F)C1=O` [Tetflupyrolimet], the “Control effect of B applied alone … (%)” value stood at 43.9% (Monochoria vaginalis, B 7.5 g a.i./ha) and 68.1% (Monochoria vaginalis, B 15 g a.i./ha).
In the case of `COC(=O)c1csc(C)c1S(=O)(=O)NC(=O)n1nc(OC)n(C)c1=O` [Thiencarbazone-methyl], the “Control effect of B applied alone … (%)” value under setting [1] came to 45.4% and the “Control effect of B applied alone … (%)” value under setting [2] is on record as 56.0%.
For the compound `COC(=O)c1sccc1S(=O)(=O)NC(=O)Nc1nc(C)nc(OC)n1` [Thifensulfuron-methyl], the “Control effect of B applied alone … (%)” value by setting is: under setting [11], 47.5%; under setting [12], 62.1%.
In the case of `COC(=O)CCNC(=O)C(C)Sc1cc(-n2c(=O)cc(C(F)(F)F)n(C)c2=O)c(F)cc1Cl` (centres unmarked) [Tiafenacil], the “Control effect of B applied alone … (%)” value is, setting by setting: under setting [2], 48.2%; (Commelina communis, B 60 g a.i./ha) 61.4%.
On to `COc1nc(OC)nc(C(=O)c2cccc(F)c2N(C)S(=O)(=O)C(F)F)n1` [Triafamone], for which the “Control effect of B applied alone … (%)” value reads like this: under setting [9], 41.1%; under setting [5], 68.2%.
On to `C#CCN1C(=O)C(F)(F)Oc2cc(F)c(-n3c(=O)n(C)c(=S)n(C)c3=O)cc21` [Trifludimoxazin], for which the “Control effect of B applied alone … (%)” value is given as 44.4% under setting [11] and 66.7% under setting [12].
For `CCCN(CCC)c1c([N+](=O)[O-])cc(C(F)(F)F)cc1[N+](=O)[O-]` [Trifluralin], the “Control effect of B applied alone … (%)” value was found to be 45.7% under setting [3] and 67.5% under setting [4].
